This is an account of results in patent publication US9745335B2 (Blirt S.A., priority 2012, dated 2017).

Assay type in all cases: cell-based
Series [1] deals with Human erythrocytes. In words: hemotoxicity determination (hemolytic activity). The procedure:
The hemotoxicity determination was carried out by the serial dilutions method, according to the procedure described earlier (Slisz, M., et al., E., J Antibiot 57: 669-678 (2004). Human erythrocytes were suspended in the solution of saline to obtain a cell density of suspension 2×10^7/ml. Suitable amounts of diluted solutions of compounds were added to the cell suspension in tubes and were incubated at 37° C. for 30 minutes and then centrifuged (1700×g, 10 min, 4° C.). The concentration of hemoglobin in supernatant after centrifugation of erythrocytes suspension were determined by measuring the absorbance at wavelength λ=540 nm (A540). The maximum level of hemolysis was obtained after incubation of cells suspension in the presence of 0.1% Tritone X-100 (control sample). […] From these graphs, the EH50 values were read which are the interpolated concentrations of compound, for which the A540 value is exactly 50% of the A540 value measured for the control sample.

Series [2] concerns Candida albicans ATCC 10231. In words: antifungal activity in vitro, serial dilution in RPMI 1640. On the procedure: (§1) For the determination of antifungal activity in vitro we used method of serial dilution in buffered medium RPMI 1640, pH 7.0, in a 96-wells microplates, according to the standard procedure (National Committee for Clinical Laboratory Standards. Reference method for broth dilution antifungal susceptibility testing of yeast, approved standard, 2nd ed. M27-A2 vol. 22 Wayne, Pa., 2002). The optical density of cells suspension was measured using a microplates reader (Victor^3, Perkin-Elmer) at the wavelength λ=531 nm (A531). On the basis of obtained results the diagrams of relation between A531 values and concentration of examined compound were made.

The test system of series [3] is Saccharomyces cerevisiae ATCC 9763. Described as above. The settings on record: RPMI 1640, pH 7.0; for Antifungal activity IC50: Saccharomyces cerevisiae ATCC 9763 (first head over MIC and IC50); for Antifungal activity MIC: Saccharomyces cerevisiae ATCC 9763. The procedure:
as §1

The test system of series [4] is Candida lusitaniae DSM 70102. The series is described as above. On the procedure: as §1
For series [5], the system named is Candida krusei DSM 6128. Described as above. On the procedure: as §1
Series [6] has as its system Candida tropicalis KKP 334. Described as above. On the procedure:
as §1

Series [7] relates to Candida glabrata DSM 11226. The description is as above. The procedure: as §1
Setting [8] is: human erythrocytes, 37° C., 30 minutes.

Where two headings read alike, the source gives them in different places.

For `C[C@@H]1[C@H](O)[C@@H](C)/C=C/C=C/C=C/C=C/C=C/C=C/C=C/[C@H](O[C@@H]2O[C@H](C)[C@@H](O)[C@H](NC3CC(=O)N(CC(C)(C)CN(C)C)C3=O)[C@@H]2O)C[C@@H]2O[C@](O)(C[C@@H](O)C[C@@H](O)[C@H](O)CC[C@@H](O)C[C@@H](O)CC(=O)O[C@H]1C)C[C@H](O)[C@H]2C(=O)O` (some centres unmarked) [Compound A7, N-{N-[3-(N,N-dimethylamino)-2,2-dimethylpropyl]succinimidyl}amphotericin B], the “Hemotoxi EH50” value in series [1] was greater than 100 µg/mL. Also, the “Antifungal activity MIC” value was determined as 4 µg/mL in series [2]; 2 µg/mL in series [3]; 1 µg/mL in series [4]; 4 µg/mL in series [5]; 2 µg/mL in series [6]; 4 µg/mL in series [7]. Also, in series [3], the “Antifungal activity IC50” value amounted to 0.70 µg/mL.

For the compound `C[C@@H]1[C@H](O)[C@@H](C)/C=C/C=C/C=C/C=C/C=C/C=C/C=C/[C@H](O[C@@H]2O[C@H](C)[C@@H](O)[C@H](NC(=S)Nc3ccccc3)[C@@H]2O)C[C@@H]2O[C@](O)(C[C@@H](O)C[C@@H](O)[C@H](O)CC[C@@H](O)C[C@@H](O)CC(=O)O[C@H]1C)C[C@H](O)[C@H]2C(=O)O` [Compound A23, N-[(3-phenyl)-thioureidyl]amphotericin B], in series [1], the “Hemotoxi EH50” value is greater than 100 µg/mL. Further, the “Antifungal activity MIC” value stood at 4 µg/mL in series [2]; 4 µg/mL in series [3]; 4 µg/mL in series [4]; 8 µg/mL in series [5]; 4 µg/mL in series [6]; 8 µg/mL in series [7]. Further, in series [3], the “Antifungal activity IC50” value is 2.54 µg/mL.

Regarding `C[C@@H]1[C@H](O)[C@@H](C)/C=C/C=C/C=C/C=C/C=C/C=C/C=C/[C@H](O[C@@H]2O[C@H](C)[C@@H](O)[C@H](NC3CC(=O)N(CCO)C3=O)[C@@H]2O)C[C@@H]2O[C@](O)(C[C@@H](O)C[C@@H](O)[C@H](O)CC[C@@H](O)C[C@@H](O)CC(=O)O[C@H]1C)C[C@H](O)[C@H]2C(=O)O` (some centres unmarked) [Compound A8, N—[N-(2-hydroxyethyl)succinimidyl]amphotericin B], the “Hemotoxi EH50” value in series [1] is greater than 100 µg/mL. Further, the “Antifungal activity MIC” value in series [2] stood at 4 µg/mL; in series [3] it was 4 µg/mL; in series [4], 4 µg/mL; in series [5], 8 µg/mL; in series [6], 4 µg/mL; in series [7] it was 8 µg/mL. For the same compound, the “Antifungal activity IC50” value in series [3] turned out to be 1.36 µg/mL.

Consider `C[C@@H]1[C@H](O)[C@@H](C)/C=C/C=C/C=C/C=C/C=C/C=C/C=C/[C@H](O[C@@H]2O[C@H](C)[C@@H](O)[C@H](NC3CC(=O)N(c4ccc([N+](=O)[O-])cc4)C3=O)[C@@H]2O)C[C@@H]2O[C@](O)(C[C@@H](O)C[C@@H](O)[C@H](O)CC[C@@H](O)C[C@@H](O)CC(=O)O[C@H]1C)C[C@H](O)[C@H]2C(=O)O` (some centres unmarked) [Compound A5, N—[N-(4-nitrophenyl)succinimidyl]amphotericin B], for which, in series [1], the “Hemotoxi EH50” value is greater than 100 µg/mL. Also, the “Antifungal activity MIC” value stood at 4 µg/mL in series [2]; 4 µg/mL in series [3]; 2 µg/mL in series [4]; 4 µg/mL in series [5]; 4 µg/mL in series [6]; 4 µg/mL in series [7]. Besides, the “Antifungal activity IC50” value in series [3] came to 1.94 µg/mL.

On to `C[C@@H]1[C@H](O)[C@@H](C)/C=C/C=C/C=C/C=C/C=C/C=C/C=C/[C@H](O[C@@H]2O[C@H](C)[C@@H](O)[C@H](NC(=S)NCc3ccncc3)[C@@H]2O)C[C@@H]2O[C@](O)(C[C@@H](O)C[C@@H](O)[C@H](O)CC[C@@H](O)C[C@@H](O)CC(=O)O[C@H]1C)C[C@H](O)[C@H]2C(=O)O` [Compound A29, N-{[3-(pyridin-4-yl)methyl]thioureidyl}amphotericin B], for which the “Hemotoxi EH50” value in series [1] is greater than 100 µg/mL. The “Antifungal activity MIC” value came out at 4 µg/mL in series [2]; 4 µg/mL in series [3]; 4 µg/mL in series [4]; 8 µg/mL in series [5]; 4 µg/mL in series [6]; 8 µg/mL in series [7]. For the same compound, in series [3], the “Antifungal activity IC50” value was determined as 2.56 µg/mL.

As to `C[C@@H]1[C@H](O)[C@@H](C)/C=C/C=C/C=C/C=C/C=C/C=C/C=C/[C@H](O[C@@H]2O[C@H](C)[C@@H](O)[C@H](NC3CC(=O)N(Cc4ccccc4)C3=O)[C@@H]2O)C[C@@H]2O[C@](O)(C[C@@H](O)C[C@@H](O)[C@H](O)CC[C@@H](O)C[C@@H](O)CC(=O)O[C@H]1C)C[C@H](O)[C@H]2C(=O)O` (some centres unmarked) [Compound A2, N—(N-benzylsuccinimidyl)amphotericin B], the “Hemotoxi EH50” value in series [1] was greater than 100 µg/mL. The “Antifungal activity MIC” value stood at 4 µg/mL in series [2]; 4 µg/mL in series [3]; 2 µg/mL in series [4]; 8 µg/mL in series [5]; 4 µg/mL in series [6]; 8 µg/mL in series [7]. In addition, in series [3], the “Antifungal activity IC50” value worked out at 2.22 µg/mL.

As for “N-D-β-naphtylalanylamphotericin B [Compound A32]”, the “Hemotoxi EH50” value in series [1] is greater than 100 µg/mL. Also, the “Antifungal activity MIC” value in series [2] turned out to be 8 µg/mL; in series [3], 4 µg/mL; in series [4], 4 µg/mL; in series [5], 8 µg/mL; in series [6], 8 µg/mL; in series [7], 8 µg/mL. Also, the “Antifungal activity IC50” value in series [3] is 3.01 µg/mL.

For the compound `C[C@@H]1[C@H](O)[C@@H](C)/C=C/C=C/C=C/C=C/C=C/C=C/C=C/[C@H](O[C@@H]2O[C@H](C)[C@@H](O)[C@H](NC(=O)[C@H](N)COC(C)(C)C)[C@@H]2O)C[C@@H]2O[C@](O)(C[C@@H](O)C[C@@H](O)[C@H](O)CC[C@@H](O)C[C@@H](O)CC(=O)O[C@H]1C)C[C@H](O)[C@H]2C(=O)O` [Compound A40, N-D-(O-tert-butyl)serylamphotericin B], in series [1] (setting [8]), the “Hemotoxi EH50” value was greater than 200 µg/mL. Also, the “Antifungal activity MIC” value in series [2] amounted to 2 µg/mL; in series [3], 2 µg/mL; in series [4], 2 µg/mL; in series [5], 4 µg/mL; in series [6] it was 4 µg/mL; in series [7], 4 µg/mL. For the same compound, the “Antifungal activity IC50” value in series [3] came to 1.35 µg/mL.

For `C[C@@H]1[C@H](O)[C@@H](C)/C=C/C=C/C=C/C=C/C=C/C=C/C=C/[C@H](O[C@@H]2O[C@H](C)[C@@H](O)[C@H](NC(=O)[C@@H](N)CSC(C)(C)C)[C@@H]2O)C[C@@H]2O[C@](O)(C[C@@H](O)C[C@@H](O)[C@H](O)CC[C@@H](O)C[C@@H](O)CC(=O)O[C@H]1C)C[C@H](O)[C@H]2C(=O)O` [Compound A37, N-L-(S-tert-butyl)cystylamphotericin B], the “Hemotoxi EH50” value in series [1] was greater than 100 µg/mL. Also, the “Antifungal activity MIC” value amounted to 2 µg/mL in series [2]; 2 µg/mL in series [3]; 1 µg/mL in series [4]; 4 µg/mL in series [5]; 2 µg/mL in series [6]; 4 µg/mL in series [7]. In addition, the “Antifungal activity IC50” value in series [3] came to 1.28 µg/mL.

`C[C@@H]1[C@H](O)[C@@H](C)/C=C/C=C/C=C/C=C/C=C/C=C/C=C/[C@H](O[C@@H]2O[C@H](C)[C@@H](O)[C@H](NC(=O)C(N)Cc3ccccc3F)[C@@H]2O)C[C@@H]2O[C@](O)(C[C@@H](O)C[C@@H](O)[C@H](O)CC[C@@H](O)C[C@@H](O)CC(=O)O[C@H]1C)C[C@H](O)[C@H]2C(=O)O` (some centres unmarked) [Compound A38, N-o-fluorophenylalanylamphotericin B]: in series [1] (setting [8]), the “Hemotoxi EH50” value is greater than 100 µg/mL. For the same compound, the “Antifungal activity MIC” value was 2 µg/mL in series [2]; 4 µg/mL in series [3]; 2 µg/mL in series [4]; 4 µg/mL in series [5]; 4 µg/mL in series [6]; 4 µg/mL in series [7]. In addition, the “Antifungal activity IC50” value in series [3] was determined as 1.92 µg/mL.
